Test [1] concerns the target CDK7/Cyclin H/MAT1 complex (Homo sapiens, UniProt P50613). As to the kind of experiment: CDK7 inhibition assay (Caliper/LabChip EZ Reader kinase assay). Format: biochemical. Conditions: Table 1; CDK7/Cyclin H/MAT1 6 nM, ATP 2 mM, 35 min at 27° C. The method, boiled down:
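A Perkin Elmer Caliper/LabChip EZ Reader (Waltham, MA) platform served as the basis for this CDK7 kinase inhibition assay. The work was carried out by Biortus Biosciences, located in Jiangyin, Jiangsu Province, P.R. of China. Each CDK studied had its own kinase assay, and compounds were evaluated for their ability to block CDK7 activity.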

For test [2], the target named is CDK9/Cyclin T1 complex (Homo sapiens, UniProt P50750). Nature of the test: CDK9 inhibition assay (Caliper/LabChip EZ Reader kinase assay). It is filed as biochemical. Conditions: Table 1; CDK9/Cyclin T1 8 nM, ATP 2 mM, 15 min at 27° C. The procedure, abridged:
(§1)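 Caliper/LabChip EZ Reader mobility-shift assays. CDK9/Cyclin T1 at 8 nM with 2 μM 5-FAM-CDK9tide peptide and 10 mM MgCl2; CDK2/Cyclin E1 at 0.5 nM with 2 μM 5-FAM-CDK7tide and 2 mM MgCl2.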

The target of test [3] is T1, CDK12 (aa686-1082)/Cyclin K complex (Homo sapiens, UniProt Q9NYV4).
T1 construct: CDK12 (aa686-1082)/Cyclin K complex
T1 sequence (Q9NYV4 686-1082, species assumed): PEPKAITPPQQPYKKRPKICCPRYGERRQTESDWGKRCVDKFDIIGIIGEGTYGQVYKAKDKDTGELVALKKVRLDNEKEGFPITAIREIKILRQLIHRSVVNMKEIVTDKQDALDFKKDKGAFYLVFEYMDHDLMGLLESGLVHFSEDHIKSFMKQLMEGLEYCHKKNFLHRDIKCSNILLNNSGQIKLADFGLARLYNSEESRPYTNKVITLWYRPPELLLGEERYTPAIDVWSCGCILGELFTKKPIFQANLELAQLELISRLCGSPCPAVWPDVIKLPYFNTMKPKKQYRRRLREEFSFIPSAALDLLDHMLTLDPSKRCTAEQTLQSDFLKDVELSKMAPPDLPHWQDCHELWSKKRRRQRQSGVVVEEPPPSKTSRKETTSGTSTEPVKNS
T1 sequence (O75909 whole entry partner, species assumed, the tested form may be a part): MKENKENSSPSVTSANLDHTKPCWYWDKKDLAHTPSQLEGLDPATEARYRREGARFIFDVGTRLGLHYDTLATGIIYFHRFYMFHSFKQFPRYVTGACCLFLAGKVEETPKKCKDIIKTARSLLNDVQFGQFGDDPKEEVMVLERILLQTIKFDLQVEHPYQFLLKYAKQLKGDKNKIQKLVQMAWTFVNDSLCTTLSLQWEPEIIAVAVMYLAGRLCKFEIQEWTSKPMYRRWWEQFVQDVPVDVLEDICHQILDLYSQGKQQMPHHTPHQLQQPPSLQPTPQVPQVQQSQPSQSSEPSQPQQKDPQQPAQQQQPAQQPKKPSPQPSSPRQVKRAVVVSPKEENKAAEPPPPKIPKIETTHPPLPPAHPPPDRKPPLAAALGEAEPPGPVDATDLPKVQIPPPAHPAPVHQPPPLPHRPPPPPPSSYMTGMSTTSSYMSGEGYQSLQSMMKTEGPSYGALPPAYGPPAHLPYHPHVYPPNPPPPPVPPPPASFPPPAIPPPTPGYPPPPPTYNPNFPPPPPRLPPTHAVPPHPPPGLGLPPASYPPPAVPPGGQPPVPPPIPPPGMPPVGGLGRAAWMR
As to the kind of experiment: CDK12 inhibition assay (Caliper/LabChip EZ Reader kinase assay). It is filed as biochemical. Conditions: Table 1; CDK12 (aa686-1082)/Cyclin K 50 nM, ATP 2 mM, 3 hr at 27° C.

In test [4] the target is CDK2/Cyclin E1 complex (Homo sapiens, UniProt P24941). As to the kind of experiment: CDK2 inhibition assay (Caliper/LabChip EZ Reader kinase assay). Conditions: Table 1; CDK2/Cyclin E1 0.5 nM, ATP 2 mM, 35 min at 27° C. It is filed as biochemical. The method, boiled down: as §1
In test [5] the test system is HCC70 cells. Nature of the test: Inhibition of proliferation of HCC70 cells (CyQUANT Direct Cell Proliferation Assay, 72 hour). It is filed as cell-based, human. Conditions: read-out: Inhibition of Proliferation of HCC70 Cells (calculated IC50). The procedure: HCC70 cells are a cell line derived from human triple negative breast cancer. […] Known CDK inhibitors dinaciclib or N-((1S,3R)-3-((5-chloro-4-(1H-indol-3-yl) pyrimidin-2-yl)amino)cyclohexyl)-5-((E)-4-(dimethylamino)but-2-enamido)picolinamide and triptolide were used as positive controls. […] The cells were cultured at 37° C. in a humidified chamber in the presence of 5% CO2. Proliferation assays were conducted over a 72 hour time period. CyQUANT® Direct Cell Proliferation Assay (Life Technologies, Chicago, IL USA) was used to assess the anti-proliferative effects of the compounds following manufacturer's directions and utilizing the reagents supplied with the CyQUANT® Direct Cell kit.

Test [6] deals with A673 cells. As to the kind of experiment: Inhibition of proliferation of A673 cells (CyQUANT, 72 hour). The conditions noted are these: A673 cells, 72 hour, CyQUANT, read-out: Inhibition of Proliferation of A673 Cells (calculated IC50). Format: cell-based, human. The procedure, abridged:
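Human Ewing's sarcoma A673 cells in DMEM with 10% FBS and 1 mM sodium pyruvate, 37° C, 5% CO2, treated 72 h with compound from 4 μM to […] (0.5 log dilutions). Antiproliferative effect read by CyQUANT assay.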

Read-outs that look alike come from different tables or passages of the source.

Sequence of CDK9/Cyclin T1 complex (P50750 whole entry, species assumed): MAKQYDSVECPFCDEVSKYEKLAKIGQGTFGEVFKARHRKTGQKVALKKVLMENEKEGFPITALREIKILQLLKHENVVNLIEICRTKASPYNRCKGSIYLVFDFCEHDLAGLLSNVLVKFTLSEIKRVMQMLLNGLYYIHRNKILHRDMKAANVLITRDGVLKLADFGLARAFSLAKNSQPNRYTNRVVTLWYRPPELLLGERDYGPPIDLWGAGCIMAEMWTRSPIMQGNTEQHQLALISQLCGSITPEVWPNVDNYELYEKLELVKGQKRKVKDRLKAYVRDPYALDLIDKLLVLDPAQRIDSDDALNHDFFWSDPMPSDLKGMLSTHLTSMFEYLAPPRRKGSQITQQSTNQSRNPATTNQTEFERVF
Sequence of CDK9/Cyclin T1 complex (O60563 whole entry partner, species assumed): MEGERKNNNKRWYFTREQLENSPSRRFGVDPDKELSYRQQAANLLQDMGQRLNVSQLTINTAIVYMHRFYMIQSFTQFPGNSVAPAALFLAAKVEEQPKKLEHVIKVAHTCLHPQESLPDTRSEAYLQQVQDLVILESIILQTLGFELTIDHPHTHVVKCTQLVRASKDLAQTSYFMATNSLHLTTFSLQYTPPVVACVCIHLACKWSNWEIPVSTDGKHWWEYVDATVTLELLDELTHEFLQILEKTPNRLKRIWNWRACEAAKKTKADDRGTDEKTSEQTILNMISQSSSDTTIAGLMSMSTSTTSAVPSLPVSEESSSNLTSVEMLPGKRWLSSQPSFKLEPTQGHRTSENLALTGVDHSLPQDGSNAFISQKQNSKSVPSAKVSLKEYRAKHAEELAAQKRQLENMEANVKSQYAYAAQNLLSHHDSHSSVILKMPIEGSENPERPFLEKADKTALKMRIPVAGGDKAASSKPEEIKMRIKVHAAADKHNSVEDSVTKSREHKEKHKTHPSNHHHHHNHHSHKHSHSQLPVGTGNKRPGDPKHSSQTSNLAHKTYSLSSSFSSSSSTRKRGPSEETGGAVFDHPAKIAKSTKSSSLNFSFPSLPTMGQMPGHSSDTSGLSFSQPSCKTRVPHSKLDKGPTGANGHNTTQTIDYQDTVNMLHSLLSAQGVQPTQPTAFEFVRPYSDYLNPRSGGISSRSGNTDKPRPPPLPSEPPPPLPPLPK
Sequence of CDK7/Cyclin H/MAT1 complex (P50613 whole entry, species assumed): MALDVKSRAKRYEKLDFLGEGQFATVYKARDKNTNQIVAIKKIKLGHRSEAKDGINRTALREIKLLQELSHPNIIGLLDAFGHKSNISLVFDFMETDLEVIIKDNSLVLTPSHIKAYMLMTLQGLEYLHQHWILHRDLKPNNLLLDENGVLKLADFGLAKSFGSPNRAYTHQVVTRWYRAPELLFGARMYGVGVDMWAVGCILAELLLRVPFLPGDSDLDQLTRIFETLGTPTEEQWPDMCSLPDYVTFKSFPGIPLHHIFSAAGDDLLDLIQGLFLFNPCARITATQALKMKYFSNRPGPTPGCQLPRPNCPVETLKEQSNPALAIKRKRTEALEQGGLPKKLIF
Sequence of CDK7/Cyclin H/MAT1 complex (P51946 whole entry partner, species assumed): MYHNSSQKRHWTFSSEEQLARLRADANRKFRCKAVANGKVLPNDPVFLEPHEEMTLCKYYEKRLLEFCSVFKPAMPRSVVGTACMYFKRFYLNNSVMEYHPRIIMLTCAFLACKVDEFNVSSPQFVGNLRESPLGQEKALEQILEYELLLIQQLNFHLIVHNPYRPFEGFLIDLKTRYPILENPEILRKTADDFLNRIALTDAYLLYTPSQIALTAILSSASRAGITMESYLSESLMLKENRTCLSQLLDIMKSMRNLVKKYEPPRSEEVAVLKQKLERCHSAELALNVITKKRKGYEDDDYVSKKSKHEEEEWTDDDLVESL
Sequence of CDK7/Cyclin H/MAT1 complex (P51948 whole entry partner, species assumed): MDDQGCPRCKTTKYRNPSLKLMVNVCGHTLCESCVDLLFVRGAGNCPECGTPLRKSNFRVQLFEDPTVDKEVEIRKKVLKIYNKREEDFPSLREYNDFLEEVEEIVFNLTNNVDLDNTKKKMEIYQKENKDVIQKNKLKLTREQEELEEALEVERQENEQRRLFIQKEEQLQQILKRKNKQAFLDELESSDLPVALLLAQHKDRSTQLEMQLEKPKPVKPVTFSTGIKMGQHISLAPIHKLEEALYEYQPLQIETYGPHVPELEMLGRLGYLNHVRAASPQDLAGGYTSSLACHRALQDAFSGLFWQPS

As for `COC1CCN(C(=O)c2ccc3c(-c4nc(N[C@H]5CCCNC5)ncc4C(F)(F)F)c[nH]c3c2)C1` (single isomer, unassigned) [Compound 281], the IC50 in test [1] is less than 20 nM; in test [2] it was 200 to 5000 nM; in test [3] it was 200 to 5000 nM; in test [4], 200 to 5000 nM; in test [5] (Homo sapiens, HCC70, 72 h) it was 100 to 1000 nM.

Consider `O=C(c1ccc2c(-c3nc(N[C@H]4CCCNC4)ncc3C(F)(F)F)c[nH]c2c1)N1CC[C@](O)(C(F)(F)F)C1` (single isomer, unassigned) [Compound 299], for which the IC50 in test [1] was less than 20 nM; in test [2], 200 to 5000 nM; in test [3] it was 200 to 5000 nM; in test [4], 200 to 5000 nM; in test [5] (Homo sapiens, HCC70, 72 h), 1000 to 5000 nM.

In the case of `O=C(c1ccc2c(-c3nc(N[C@H]4CCCNC4)ncc3C(F)(F)F)c[nH]c2c1)N1CC[C@@](O)(C(F)(F)F)C1` (single isomer, unassigned) [Compound 300], the IC50 in test [1] is less than 20 nM; in test [2] it was 200 to 5000 nM; in test [3], 200 to 5000 nM; in test [4] it was 200 to 5000 nM; in test [5] (Homo sapiens, HCC70, 72 h), 100 to 1000 nM.

Consider `CC[C@@]1(O)CCN(C(=O)c2ccc3c(-c4nc(N[C@H]5CCCNC5)ncc4C(F)(F)F)c[nH]c3c2)C1` (single isomer, unassigned) [Compound 309], for which the IC50 in test [1] was 20 to 200 nM; in test [2], greater than 5000 nM; in test [3], 200 to 5000 nM; in test [4], greater than 5000 nM; in test [5] (Homo sapiens, HCC70, 72 h) it was 1000 to 5000 nM.

For `CC[C@]1(O)CCN(C(=O)c2ccc3c(-c4nc(N[C@H]5CCCNC5)ncc4C(F)(F)F)c[nH]c3c2)C1` (single isomer, unassigned) [Compound 347], the IC50 in test [1] was 20 to 200 nM; in test [2] it was greater than 5000 nM; in test [3], 200 to 5000 nM; in test [4], greater than 5000 nM; in test [5] (Homo sapiens, HCC70, 72 h), 100 to 1000 nM.

In the case of `CS(=O)(=O)c1cccn2c([C@H]3CCC[C@@H](Nc4ncc(C(F)(F)F)c(-c5c[nH]c6ccccc56)n4)C3)nnc12` [Compound 265, 4-(1H-indol-3-yl)-N-[(1R,3S)-3-(8-methylsulfonyl-[1,2,4]triazolo [4,3-a]pyridin-3-yl)cyclohexyl]-5-(trifluoromethyl) pyrimidin-2-amin], the IC50 in test [1] was 200 to 5000 nM; in test [2] it was 200 to 5000 nM; in test [3] it was 200 to 5000 nM; in test [4], 200 to 5000 nM; in test [6] (Homo sapiens, A673, 72 h), 20 to 200 nM.

For the molecule `FC(F)(F)c1cnc(N[C@H]2CNC[C@@H](c3nnc4ccccn34)C2)nc1-c1c[nH]c2ccccc12` [Compound 268], the IC50 in test [1] was 200 to 5000 nM; in test [2], greater than 5000 nM; in test [3], 200 to 5000 nM; in test [4] it was greater than 5000 nM; in test [6], 200 to 5000 nM.

`CCc1cnc(N[C@H]2CCCNC2)nc1-c1c[nH]c2cc(S(C)(=O)=O)ccc12` [Compound 271]: the IC50 is 20 to 200 nM in test [1]; greater than 5000 nM in test [2]; greater than 5000 nM in test [3]; greater than 5000 nM in test [4]; 200 to 5000 nM in test [6] (Homo sapiens, A673, 72 h).

As to `CSc1cnc(N[C@H]2CCCNC2)nc1-c1c[nH]c2cc(C#N)ccc12` [Compound 272, 3-[5-methylsulfanyl-2-[[(3S)-3-piperidyl]amino]pyrimidin-4-yl]-1H-indole-6-carbonitrile], the IC50 in test [1] was less than 20 nM; in test [2] it was 200 to 5000 nM; in test [3], 200 to 5000 nM; in test [4], 200 to 5000 nM; in test [6] (Homo sapiens, A673, 72 h) it was 20 to 200 nM.

`CCS(=O)(=O)c1ccc2c(-c3nc(N[C@H]4CCCNC4)ncc3C(F)(F)F)c[nH]c2c1` [Compound 274]: the IC50 in test [1] is less than 20 nM; in test [2] it was 200 to 5000 nM; in test [3], 200 to 5000 nM; in test [4] it was 200 to 5000 nM; in test [6] (Homo sapiens, A673, 72 h) it was 20 to 200 nM.

Regarding `CCc1cnc(N[C@H]2CCCNC2)nc1-c1n[nH]c2cc(C#N)ccc12` [Compound 275, (S)-3-(5-ethyl-2-(piperidin-3-ylamino)pyrimidin-4-yl)-1H-indazole-6-carbonitrile], the IC50 in test [1] was less than 20 nM; in test [2], 200 to 5000 nM; in test [3], 200 to 5000 nM; in test [4], 200 to 5000 nM; in test [6] (Homo sapiens, A673, 72 h) it was 20 to 200 nM.

On to `CC(C)c1cnc(N[C@H]2CCCNC2)nc1-c1n[nH]c2nc(C#N)ccc12` [Compound 276, (S)-3-(5-isopropyl-2-(piperidin-3-ylamino)pyrimidin-4-yl)-1H-pyrazolo[3,4-b]pyridine-6-carbonitrile], for which the IC50 in test [1] was 20 to 200 nM; in test [2], greater than 5000 nM; in test [3] it was greater than 5000 nM; in test [4], greater than 5000 nM; in test [6] (Homo sapiens, A673, 72 h), 200 to 5000 nM.

Consider `FC(F)(F)c1cnc(N[C@H]2CCCNC2)nc1-c1c[nH]c2cc(-c3cc[nH]n3)ccc12` [Compound 291, N-[(3S)-3-piperidyl]-4-[6-(1H-pyrazol-3-yl)-1H-indol-3-yl]-5-(trifluoromethyl) pyrimidin-2-amine], for which the IC50 in test [1] is 20 to 200 nM; in test [2], 200 to 5000 nM; in test [3], 200 to 5000 nM; in test [4], greater than 5000 nM; in test [6], 20 to 200 nM.

On to `Nc1nc2c(-c3ccc4c(-c5nc(N[C@H]6CCCNC6)ncc5C(F)(F)F)c[nH]c4c3)cccc2s1` [Compound 312], for which the IC50 in test [1] is 20 to 200 nM; in test [3] it was 200 to 5000 nM; in test [5] (Homo sapiens, HCC70, 72 h), 100 to 1000 nM.

`N#Cc1cc(-c2ccc3c(-c4nc(N[C@H]5CCCNC5)ncc4C(F)(F)F)c[nH]c3c2)ccc1O` [Compound 315]: the IC50 in test [1] is 20 to 200 nM; in test [3], 200 to 5000 nM; in test [5], 1000 to 5000 nM.

As to `FC(F)(F)c1cnc(NC2CCCNC2)nc1-c1c[nH]c2cc(C=Cc3ccccc3)ccc12` (centres unmarked) [Compound 317], the IC50 in test [1] was 20 to 200 nM; in test [3] it was 200 to 5000 nM; in test [5] (Homo sapiens, HCC70, 72 h), 1000 to 5000 nM.

With `FC(F)(F)c1cc2[nH]cc(-c3ccc4c(-c5nc(N[C@H]6CCCNC6)ncc5C(F)(F)F)c[nH]c4c3)c2cn1` [Compound 319], the IC50 is 20 to 200 nM in test [1], 200 to 5000 nM in test [3] and 1000 to 5000 nM in test [5].

Consider `Cn1cc(-c2ccc3c(-c4nc(N[C@H]5CCCNC5)ncc4C(F)(F)F)c[nH]c3c2)c2cnc(C(F)(F)F)cc21` [Compound 320], for which the IC50 in test [1] is 20 to 200 nM; in test [3] it was 200 to 5000 nM; in test [5] (Homo sapiens, HCC70, 72 h) it was 1000 to 5000 nM.

As for `Nc1ncc2cccc(-c3ccc4c(-c5nc(N[C@H]6CCCNC6)ncc5C(F)(F)F)c[nH]c4c3)c2n1` [Compound 322], the IC50 in test [1] was less than 20 nM; in test [3], 200 to 5000 nM; in test [5], 100 to 1000 nM.

As to `OCCc1cccc(-c2ccc3c(-c4nc(N[C@H]5CCCNC5)ncc4C(F)(F)F)c[nH]c3c2)c1` [Compound 324], the values for the IC50 in test [1], in test [3] and in test [5] were 20 to 200 nM, 200 to 5000 nM and 100 to 1000 nM, respectively.

Consider `FC(F)(F)c1cnc(N[C@H]2CCCNC2)nc1-c1c[nH]c2cc(-c3ccc4ccncc4c3)ccc12` [Compound 325], for which the IC50 in test [1] is 20 to 200 nM; in test [3], 200 to 5000 nM; in test [5] it was 100 to 1000 nM.

Regarding `NS(=O)(=O)c1cccc(-c2ccc3c(-c4nc(N[C@H]5CCCNC5)ncc4C(F)(F)F)c[nH]c3c2)c1` [Compound 326], the IC50 in test [1] is 20 to 200 nM; in test [3], 200 to 5000 nM; in test [5], 100 to 1000 nM.

With `CCOc1ccccc1-c1ccc2c(-c3nc(NC4CCCNC4)ncc3C(F)(F)F)c[nH]c2c1` (centres unmarked) [Compound 327], the IC50 in test [1] is 20 to 200 nM; in test [3], 200 to 5000 nM; in test [5] (Homo sapiens, HCC70, 72 h), 100 to 1000 nM.

With `FC(F)(F)c1cnc(N[C@H]2CCCNC2)nc1-c1c[nH]c2cc(-c3ccc4cn[nH]c4c3)ccc12` [Compound 329], the IC50 in test [1] was 20 to 200 nM; in test [3] it was 200 to 5000 nM; in test [5] (Homo sapiens, HCC70, 72 h), 100 to 1000 nM.

For the molecule `NS(=O)(=O)c1ccc(-c2ccc3c(-c4nc(N[C@H]5CCCNC5)ncc4C(F)(F)F)c[nH]c3c2)cc1` [Compound 331], the IC50 in test [1] is 20 to 200 nM; in test [3], 200 to 5000 nM; in test [5], 100 to 1000 nM.

For `Cn1ncc2ccc(-c3ccc4c(-c5nc(N[C@H]6CCCNC6)ncc5C(F)(F)F)c[nH]c4c3)cc21` [Compound 337], the IC50 is 20 to 200 nM in test [1], 200 to 5000 nM in test [3] and 100 to 1000 nM in test [5].

(Values after patent US20240360165A1, “INHIBITORS OF CYCLIN DEPENDENT KINASE 7 (CDK7)” (Syros Pharmaceuticals, Inc., priority 2016, published 2024).)
